The assay has as its target T1, BACE2 (Rattus norvegicus, UniProt Q6IE75).
T1 construct: endogenous cellular BACE2 in the Ins1e rat cell line; endogenous in cells; host or cells: INS-TMEM27 (INS1e-derived rat insulinoma cell line with doxycycline-inducible full-length hTMEM27)
T1 sequence (Q6IE75 63-514): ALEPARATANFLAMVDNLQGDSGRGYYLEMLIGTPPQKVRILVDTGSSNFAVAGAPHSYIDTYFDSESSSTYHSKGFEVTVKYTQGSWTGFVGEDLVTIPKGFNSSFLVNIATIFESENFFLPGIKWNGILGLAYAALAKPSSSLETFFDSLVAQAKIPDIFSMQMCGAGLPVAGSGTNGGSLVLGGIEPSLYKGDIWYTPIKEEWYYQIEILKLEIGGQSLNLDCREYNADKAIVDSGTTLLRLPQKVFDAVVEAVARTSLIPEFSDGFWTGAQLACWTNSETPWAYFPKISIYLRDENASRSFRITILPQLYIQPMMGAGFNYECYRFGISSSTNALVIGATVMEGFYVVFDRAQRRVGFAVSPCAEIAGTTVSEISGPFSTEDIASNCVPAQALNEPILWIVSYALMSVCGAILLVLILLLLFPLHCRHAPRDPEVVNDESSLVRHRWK
Briefly: Assay for BACE inhibition by measuring cellular TMEM27 cleavage (INS-TMEM27 cells, ELISA of shed TMEM27). The class given is cell-based. The conditions noted are these: inhibition of human TMEM27 cleavage by endogenous cellular BACE2 in Ins1e rat cell line; ELISA of culture medium. The text has this:
Assay for BACE Inhibition by Measuring Cellular TMEM27 Cleavage
The assay uses the principle of inhibition of human TMEM27 cleavage by endogenous cellular BACE2 in the Ins1e rat cell line and shedding from the cell surface into the culture medium, followed by detection in an ELISA assay. Inhibition of BACE2 prevents the cleavage and shedding in a dose-dependent manner.
The stable cell line “INS-TMEM27” represents an INS1e-derived cell line with inducible expression (using the TetOn system) of full-length hTMEM27 in a doxycycline-dependent manner. The cells were cultured throughout the experiment in RPMI1640+Glutamax (Invitrogen) Penicillin/Streptomycin, 10% Fetal bovine serum, […], […], 100 micrograms/ml G418 and 100 microgram/ml hygromycin and were grown in adherent culture at 37° C. in a standard CO2 cell culture incubator.
INS-TMEM27 cells were seeded in 96-well plates. After 2 days in culture, BACE2 inhibitor was added in a range of concentrations as required by the assay and after a further two hours, doxycycline was added to a final concentration of 500 ng/ml. The cells were incubated for a further 46 hours and the supernatant harvested for detection of shed TMEM27.
An ELISA assay (using a pair of mouse anti-human-TMEM27 antibodies, raised against the extracellular domain of TMEM27) was used for detection of TMEM27 in the culture medium. An IC50 for BACE2 inhibition was calculated using the ELISA readout for each inhibitor concentration with standard curve-fitting software XLfit (IDBS) for the Excel spreadsheet program.
On the technique in general: ELISA stands for enzyme-linked immunosorbent assay.

Data on two molecules can be found in patent publication US7964594B1, “Amino oxazine derivatives” (Hoffmann-La Roche Inc., priority 2009, dated 2011).

As for `C[C@@]1(c2cc(NC(=O)C3(C(F)(F)F)CC3)ccc2F)CCOC(N)=N1` [Example 58, 1-Trifluoromethyl-cyclopropanecarboxylic acid [3-((S)-2-amino-4-methyl-5,6-dihydro-4H-[1,3]oxazin-4-yl)-4-fluoro-phenyl]-amide], half-maximal inhibition (IC50) was put at 700 nM. As to `C[C@@]1(c2cc(NC(=O)c3nccc4ccsc34)ccc2F)CCOC(N)=N1` [Example 11, Thieno[2,3-c]pyridine-7-carboxylic acid [3-((S)-2-amino-4-methyl-5,6-dihydro-4H-[1,3]oxazin-4-yl)-4-fluoro-phenyl]-amide], the half-maximal inhibitory concentration (IC50) (in general, the concentration at which inhibition is half-maximal) is 28 nM.
